For assay [1], the target named is T1, FLT3 (Homo sapiens, UniProt P36888).
T1 construct: purchased Eurofins/DiscoverX
T1 sequence (P36888 27-993): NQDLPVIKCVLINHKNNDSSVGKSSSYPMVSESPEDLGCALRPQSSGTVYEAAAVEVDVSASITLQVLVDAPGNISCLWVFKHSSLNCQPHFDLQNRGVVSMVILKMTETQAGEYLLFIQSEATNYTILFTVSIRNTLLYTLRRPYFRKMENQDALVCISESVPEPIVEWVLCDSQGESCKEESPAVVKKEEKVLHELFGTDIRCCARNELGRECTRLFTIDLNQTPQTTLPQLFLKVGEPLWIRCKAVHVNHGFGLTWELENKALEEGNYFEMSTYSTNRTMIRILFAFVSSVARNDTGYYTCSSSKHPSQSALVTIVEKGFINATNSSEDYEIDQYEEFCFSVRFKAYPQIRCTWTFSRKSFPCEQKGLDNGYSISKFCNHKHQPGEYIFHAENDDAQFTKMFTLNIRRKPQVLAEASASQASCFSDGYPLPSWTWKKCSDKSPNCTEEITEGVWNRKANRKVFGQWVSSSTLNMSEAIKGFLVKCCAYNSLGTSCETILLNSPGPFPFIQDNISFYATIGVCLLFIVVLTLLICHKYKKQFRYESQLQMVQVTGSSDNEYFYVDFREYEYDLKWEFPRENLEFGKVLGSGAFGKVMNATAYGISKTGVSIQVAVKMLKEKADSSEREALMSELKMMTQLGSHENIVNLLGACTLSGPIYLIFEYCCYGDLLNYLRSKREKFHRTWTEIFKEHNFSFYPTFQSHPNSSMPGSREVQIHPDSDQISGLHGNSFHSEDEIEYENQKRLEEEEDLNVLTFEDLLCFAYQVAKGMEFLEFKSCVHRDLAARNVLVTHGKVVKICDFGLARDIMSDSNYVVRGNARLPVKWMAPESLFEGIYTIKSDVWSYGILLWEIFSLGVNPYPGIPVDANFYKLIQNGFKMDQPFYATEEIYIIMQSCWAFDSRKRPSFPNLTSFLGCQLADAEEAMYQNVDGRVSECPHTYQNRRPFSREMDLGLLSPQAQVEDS
Description: Eurofins/DiscoverX KdELECT, FLT3 kinase IC50. Type of assay: binding. Particulars: 11-point 3-fold dilution, top concentration 10,000 nM. On the procedure: (§1) The 3i-compounds underwent activity testing against a panel of 32 bromodomains using the Eurofins/DiscoverX bromoMAX assay, with specific focus on TAF1(2) bromodomain assessed by the KdELECT assay. In a similar manner, kinase activity was evaluated using a panel of 97 kinase proteins using the Eurofins/DiscoverX scanELECT and KdELECT assays, with specific focus on FLT3 protein. An 11-point 3-fold serial dilution of each test compound was prepared in 100% DMSO at 100x final test concentration and subsequently diluted to final concentration (DMSO 1%). […] Percent control was calculated using the following formula: ((test compound signal – positive control signal)/ (negative control signal – positive control signal)) × 100.

In assay [2] the test system is DU4475 cells. Description: Cell toxicity, CellTox Green, DU4475. The conditions noted are these: CellTox Green relative to DMSO. Format: cell-based. Here is the method:
(§2) Drug sensitivity and resistance testing in MOLM13, DU4475, HDQP1, and IGROV1 cells was conducted at the Finnish Institute for Molecular Medicine (FIMM), University of Helsinki. In brief, the effects of compounds on cell viability and cell death were quantified with Cell-Titer Glo (Promega) and CellTox Green (Promega), respectively. Compounds or vehicle control were included in cell culture medium at described concentrations for 72h using an automated liquid dispenser in 384-well format. For KASUMI-1 experiments, cells were grown in 96-well plates and similarly incubated with compounds at indicated concentrations for 72h in RPMI + 10% FCS + Gentamicin, followed by lysis and quantification of cell viability with Cell-Titer Glo (Promega).
(§3) Raw values from viability and toxicity assays were normalized to DMSO and plotted to heat maps in R using pheatmap (RRID:SCR_016418). Dose-response curves were generated using the drc package in R [40]. In brief, nonlinear modelling was performed to calculate IC50 values for each compound where possible and resulting curves from drc and experimental values were plotted using ggplot2 (RRID:SCR_014601).

In assay [3] the target is T2, c-KIT (Homo sapiens, UniProt P10721).
T2 construct: purchased Eurofins/DiscoverX
T2 sequence (P10721 26-976): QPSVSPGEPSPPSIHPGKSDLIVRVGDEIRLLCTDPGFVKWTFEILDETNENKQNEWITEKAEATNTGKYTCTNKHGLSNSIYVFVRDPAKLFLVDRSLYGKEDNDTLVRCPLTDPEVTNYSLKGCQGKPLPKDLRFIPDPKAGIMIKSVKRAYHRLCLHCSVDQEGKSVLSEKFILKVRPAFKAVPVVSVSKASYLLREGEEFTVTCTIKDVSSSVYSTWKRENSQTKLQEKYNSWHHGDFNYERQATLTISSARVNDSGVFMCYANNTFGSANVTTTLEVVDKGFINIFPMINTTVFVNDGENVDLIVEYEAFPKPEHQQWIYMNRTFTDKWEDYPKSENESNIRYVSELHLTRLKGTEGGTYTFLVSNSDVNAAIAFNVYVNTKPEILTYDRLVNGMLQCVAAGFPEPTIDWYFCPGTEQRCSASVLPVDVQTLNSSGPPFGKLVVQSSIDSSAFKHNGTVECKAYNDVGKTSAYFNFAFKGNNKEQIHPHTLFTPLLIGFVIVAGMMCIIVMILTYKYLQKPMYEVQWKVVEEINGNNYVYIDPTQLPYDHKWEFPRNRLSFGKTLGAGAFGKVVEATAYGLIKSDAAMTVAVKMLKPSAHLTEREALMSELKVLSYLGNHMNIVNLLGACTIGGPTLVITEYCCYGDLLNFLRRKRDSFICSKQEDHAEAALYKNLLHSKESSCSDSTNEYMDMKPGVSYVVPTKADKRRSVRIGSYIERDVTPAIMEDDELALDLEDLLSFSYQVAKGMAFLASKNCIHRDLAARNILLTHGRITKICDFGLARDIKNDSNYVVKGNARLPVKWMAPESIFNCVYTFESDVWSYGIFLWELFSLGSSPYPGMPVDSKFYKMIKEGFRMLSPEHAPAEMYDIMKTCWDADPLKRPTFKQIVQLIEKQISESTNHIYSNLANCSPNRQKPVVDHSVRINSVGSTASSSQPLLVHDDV
Description: Eurofins/DiscoverX kinase assay, c-KIT IC50. Type of assay: binding. On the procedure: as §1

For assay [4], the target named is T3, PDGFRB (Homo sapiens, UniProt P09619).
T3 construct: purchased Eurofins/DiscoverX
T3 sequence (P09619 33-1106): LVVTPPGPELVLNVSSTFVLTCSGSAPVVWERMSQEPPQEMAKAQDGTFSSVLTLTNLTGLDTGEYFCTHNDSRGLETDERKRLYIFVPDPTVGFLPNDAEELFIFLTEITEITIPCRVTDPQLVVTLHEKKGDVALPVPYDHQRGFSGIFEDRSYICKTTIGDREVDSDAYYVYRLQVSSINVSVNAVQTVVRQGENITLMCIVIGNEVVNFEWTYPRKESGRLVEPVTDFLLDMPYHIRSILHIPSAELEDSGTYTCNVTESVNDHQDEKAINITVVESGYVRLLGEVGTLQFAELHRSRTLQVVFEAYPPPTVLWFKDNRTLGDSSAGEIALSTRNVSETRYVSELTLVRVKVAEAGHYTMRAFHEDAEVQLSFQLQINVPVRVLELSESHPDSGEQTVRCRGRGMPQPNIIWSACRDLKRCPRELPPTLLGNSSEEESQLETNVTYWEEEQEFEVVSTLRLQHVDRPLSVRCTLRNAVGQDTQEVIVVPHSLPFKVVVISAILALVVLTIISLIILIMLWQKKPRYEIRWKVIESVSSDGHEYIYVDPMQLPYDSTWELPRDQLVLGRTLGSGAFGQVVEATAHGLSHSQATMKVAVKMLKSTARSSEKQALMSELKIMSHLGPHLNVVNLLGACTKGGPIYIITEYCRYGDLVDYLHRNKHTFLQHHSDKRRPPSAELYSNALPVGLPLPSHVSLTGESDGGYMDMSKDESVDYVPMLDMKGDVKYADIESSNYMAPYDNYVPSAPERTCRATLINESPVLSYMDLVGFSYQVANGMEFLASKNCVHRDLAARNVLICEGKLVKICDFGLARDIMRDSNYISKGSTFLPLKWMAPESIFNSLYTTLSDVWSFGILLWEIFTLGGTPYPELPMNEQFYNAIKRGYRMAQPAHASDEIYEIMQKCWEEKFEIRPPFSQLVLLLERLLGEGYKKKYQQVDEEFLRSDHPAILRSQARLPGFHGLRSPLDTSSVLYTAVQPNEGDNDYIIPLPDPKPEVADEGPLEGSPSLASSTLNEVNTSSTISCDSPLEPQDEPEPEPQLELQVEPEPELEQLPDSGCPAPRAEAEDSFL
Description: Eurofins/DiscoverX kinase assay, PDGFRB IC50. Type of assay: binding. Here is the method: as §1

Assay [5] deals with KASUMI-1 cells. The assay is described as follows: Cell viability, CellTiter Glo, KASUMI-1. Type of assay: cell-based. The conditions noted are these: compared to dual FLT3/TAF1(2) compounds 3i-1103, 3i-1246, 3i-1248. Here is the method:
as §2, §3

The values below come from publication PMC11952222, “Development and comparison of single FLT3-inhibitors to dual FLT3/TAF1-inhibitors as an anti-leukemic approach” (PLOS One, 2025).

One may read the IC50 as the point on the concentration scale where inhibition reaches its midpoint. Low readings indicate greater potency, high ones weaker potency. For the compound `COc1ccc(-c2cc(NC(=O)c3ccc(C(C)(C)C)cc3)[nH]n2)cc1` [Compound 3i-1103], the IC50 in assay [1] is less than 1000 nM. Also, the “CTX normalized_to_DMSO” value in assay [2] (DU4475, exp 1, 0.3 µM) is recorded as 1.007; in assay [2] (DU4475, exp 1, 1 µM) it was 0.9954; in assay [2] (DU4475, exp 1, 3 µM), 0.9628; in assay [2] (DU4475, exp 1, 10 µM), 0.9392; in assay [2] (DU4475, exp 1, 30 µM), 0.7319.
For `Cc1cc(-c2cc(NC(=O)c3ccc(C(C)(C)C)cc3)[nH]n2)ccn1` [Compound 3i-1246, 4-(tert-butyl)-N-(3-(2-methylpyridin-4-yl)-1H-pyrazol-5-yl)benzamide], the IC50 in assay [1] is 18 nM.
Regarding `CC(C)(C)c1ccc(C(=O)Nc2cc(-c3ccccc3)n[nH]2)cc1` [Compound 3i-1247, 4-(tert-butyl)-N-(3-phenyl-1H-pyrazol-5-yl)benzamide], the 50% inhibitory concentration (IC50) in assay [1] amounted to 1.5 nM; in assay [3], 8.5 nM; in assay [4], 3.4 nM. Moreover, the “anti-proliferative activity in KASUMI-1 cells” value in assay [5] is listed as “superior anti-proliferative activity”.
In assay [1], `Cn1cc(-c2cc(NC(=O)c3ccc(C(C)(C)C)cc3)n[nH]2)ccc1=O` [Compound 3i-1248, 4-(tert-butyl)-N-(5-(1-methyl-6-oxo-1,6-dihydropyridin-3-yl)-1H-pyrazol-3-yl)benzamide] yielded an IC50 of less than 1000 nM.
